# Like-named read-outs stand apart in the source and are kept apart here.
# Tests used:
# NRAS G12C = target: T1, NRAS G12C (Homo sapiens, UniProt P01111+P62937, G12C); assay: Ras-Raf disruption/FRET/MOA assay, NRAS G12C; format: biochemical; settings: NRAS G12C; read-out: NRAS G12C FRET data IC50
# T1 construct: His6
# Source text: (§1) Disruption of B-Raf Ras-Binding Domain (BRAF^RBD) Interaction with K-Ras by Compounds of the Invention (Also Called a FRET Assay or an MOA Assay)
# (§2) Note—The following protocol describes a procedure for monitoring disruption of K-Ras G12C (GMP-PNP) binding to BRAF^RBD by a compound of the invention. This protocol may also be executed substituting other Ras proteins or nucleotides, such as K-Ras G12D and K-Ras G13D.
# (§3) The purpose of this biochemical assay was to measure the ability of test compounds to facilitate ternary complex formation between a nucleotide-loaded K-Ras isoform and Cyclophilin A; the resulting ternary complex disrupts binding to a BRAF^RBD construct, inhibiting K-Ras signaling through a RAF effector.
# (§4) In assay buffer containing 25 mM HEPES pH 7.3, 0.002% Tween20, 0.1% BSA, 100 mM NaCl and 5 mM MgCl2, tagless Cyclophilin A, His6-K-Ras-GMPPNP, and GST-BRAF^RBD were combined in a 384-well assay plate at final concentrations of 25 μM, 12.5 nM, and 50 nM, respectively. Compound was present in plate wells as a 10-point 3-fold dilution series starting at a final concentration of 30 μM. After incubation at 25° C. for 3 hours, a mixture of anti-His Eu-W1024 and anti-GST allophycocyanin was then added to assay sample wells at final concentrations of 10 nM and 50 nM, respectively, and the reaction incubated for an additional 1.5 hours. […] Compounds that facilitate disruption of a K-Ras:RAF complex were identified as those eliciting a decrease in the TR-FRET ratio relative to DMSO control wells.
# KRAS G12V = KRAS G12V (Homo sapiens, UniProt P01116+P62937, G12V); assay: Ras-Raf disruption/FRET/MOA assay, KRAS G12V; format: biochemical; settings: disruption of BRAF RBD binding, with Cyclophilin A; read-out: KRAS G12V FRET IC50
# Source text: as §1, §2, §3, §4
# KRAS G12C = KRAS G12C (Homo sapiens, UniProt P01116+P62937, G12C); assay: Ras-Raf disruption/FRET/MOA assay, KRAS G12C; format: biochemical; settings: disruption of BRAF RBD binding, with Cyclophilin A; read-out: KRAS G12C FRET IC50
# Source text: as §1, §2, §3, §4
# AsPC-1 (K-Ras G12D) [1] = assay: CellTiter-Glo cell viability assay, AsPC-1; format: cell-based; settings: Homo sapiens, ASPC1, 120 h, read-out: AsPC-1 Cell Viability IC50
# Method in brief: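 Luminescence from CellTiter-Glo serves as the viability read-out after cells are treated with compound for 5 days. Each well's signal is divided by the DMSO average and multiplied by 100, and curves are fitted by four-parameter logistic regression.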
# KRAS G13C = KRAS G13C (Homo sapiens, UniProt P01116+P62937, G13C); assay: Ras-Raf disruption/FRET/MOA assay, KRAS G13C; format: biochemical; settings: disruption of BRAF RBD binding, with Cyclophilin A; read-out: KRAS G13C FRET IC50
# Source text: as §1, §2, §3, §4
# KRAS G12S = KRAS G12S (Homo sapiens, UniProt P01116+P62937, G12S); assay: Ras-Raf disruption/FRET/MOA assay, KRAS G12S; format: biochemical; settings: disruption of BRAF RBD binding, with Cyclophilin A; read-out: KRAS G12S FRET IC50
# Source text: as §1, §2, §3, §4
# KRAS G12D = KRAS G12D (Homo sapiens, UniProt P01116+P62937, G12D); assay: Ras-Raf disruption/FRET/MOA assay, KRAS G12D; format: biochemical; settings: disruption of BRAF RBD binding, with Cyclophilin A; read-out: KRAS G12D FRET IC50
# Source text: as §1, §2, §3, §4
# KRAS G13D = KRAS G13D (Homo sapiens, UniProt P01116+P62937, G13D); assay: Ras-Raf disruption/FRET/MOA assay, KRAS G13D; format: biochemical; settings: disruption of BRAF RBD binding, with Cyclophilin A; read-out: KRAS G13D FRET IC50
# Source text: as §1, §2, §3, §4
# AsPC-1 (K-Ras G12D) [2] = assay: Potency assay: pERK in AsPC-1 cells; format: cell-based; settings: Homo sapiens
# KRAS WT = KRAS WT (Homo sapiens, UniProt P01116+P62937); assay: Ras-Raf disruption/FRET/MOA assay, KRAS WT; format: biochemical; settings: disruption of BRAF RBD binding, with Cyclophilin A; read-out: KRAS WT FRET IC50
# Source text: as §1, §2, §3, §4
# [3] = AsPC-1, K-Ras G12D, 5-day treatment
# [4] = ASPC1, AsPC-1 cells, K-Ras G12D, read-out: pERK EC50 (AsPC-1 KRAS G12D)
# [5] = ASPC1, read-out: pERK EC50 (AsPC-1 KRAS G12D)
# KRAS G12C, sequence (P01116 1-169 isoform P01116-2 G12C limits assumed): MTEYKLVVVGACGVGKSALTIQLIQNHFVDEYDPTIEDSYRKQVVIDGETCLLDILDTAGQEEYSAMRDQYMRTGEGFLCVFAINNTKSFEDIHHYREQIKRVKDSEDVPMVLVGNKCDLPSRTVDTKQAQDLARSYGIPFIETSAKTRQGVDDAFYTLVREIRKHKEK
# KRAS G12C, sequence (P62937 whole entry): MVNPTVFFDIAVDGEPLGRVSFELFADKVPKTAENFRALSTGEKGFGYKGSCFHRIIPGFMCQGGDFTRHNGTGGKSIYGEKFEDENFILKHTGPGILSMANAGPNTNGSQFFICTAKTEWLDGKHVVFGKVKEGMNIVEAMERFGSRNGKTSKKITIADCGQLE
# KRAS G12V, sequence (P01116 1-169 isoform P01116-2 G12V limits assumed): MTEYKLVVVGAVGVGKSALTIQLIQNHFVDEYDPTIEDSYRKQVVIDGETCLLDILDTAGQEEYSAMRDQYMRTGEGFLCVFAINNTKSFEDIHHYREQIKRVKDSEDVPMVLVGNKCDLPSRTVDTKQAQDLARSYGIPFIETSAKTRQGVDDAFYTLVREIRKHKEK
# KRAS G12V, sequence (P62937 whole entry): as the sequence (P62937 whole entry) above
# KRAS G12S, sequence (P01116 1-169 isoform P01116-2 G12S limits assumed): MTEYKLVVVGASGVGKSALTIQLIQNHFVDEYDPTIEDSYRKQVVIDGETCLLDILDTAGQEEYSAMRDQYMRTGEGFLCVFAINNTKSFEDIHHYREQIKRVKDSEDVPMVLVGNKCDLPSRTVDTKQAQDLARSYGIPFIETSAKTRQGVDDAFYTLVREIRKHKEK
# KRAS G12S, sequence (P62937 whole entry): as the sequence (P62937 whole entry) above
# KRAS G12D, sequence (P01116 1-169 isoform P01116-2 G12D limits assumed): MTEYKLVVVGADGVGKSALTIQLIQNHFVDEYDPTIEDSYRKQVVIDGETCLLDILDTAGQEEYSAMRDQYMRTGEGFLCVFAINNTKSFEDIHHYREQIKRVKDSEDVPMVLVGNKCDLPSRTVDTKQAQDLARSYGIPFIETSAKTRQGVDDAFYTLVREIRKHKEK
# KRAS G12D, sequence (P62937 whole entry): as the sequence (P62937 whole entry) above
# KRAS WT, sequence (P01116 1-169 isoform P01116-2 limits assumed): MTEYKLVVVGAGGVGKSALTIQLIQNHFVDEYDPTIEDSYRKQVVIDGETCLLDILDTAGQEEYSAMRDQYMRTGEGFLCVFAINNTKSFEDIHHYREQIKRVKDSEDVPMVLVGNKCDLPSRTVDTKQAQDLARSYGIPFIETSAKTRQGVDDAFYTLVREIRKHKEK
# KRAS WT, sequence (P62937 whole entry): as the sequence (P62937 whole entry) above
# KRAS G13C, sequence (P01116 1-169 isoform P01116-2 G13C limits assumed): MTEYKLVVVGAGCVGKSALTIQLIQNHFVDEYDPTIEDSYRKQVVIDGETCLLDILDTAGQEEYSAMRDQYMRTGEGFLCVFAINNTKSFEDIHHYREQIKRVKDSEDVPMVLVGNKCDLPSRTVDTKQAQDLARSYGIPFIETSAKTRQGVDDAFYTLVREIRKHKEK
# KRAS G13C, sequence (P62937 whole entry): as the sequence (P62937 whole entry) above
# T1 sequence (P01111 whole entry G12C): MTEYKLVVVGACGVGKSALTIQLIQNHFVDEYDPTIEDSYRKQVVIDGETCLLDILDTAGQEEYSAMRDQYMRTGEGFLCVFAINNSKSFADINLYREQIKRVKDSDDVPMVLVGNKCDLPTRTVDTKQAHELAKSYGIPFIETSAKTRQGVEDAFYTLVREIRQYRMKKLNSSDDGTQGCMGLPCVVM
# T1 sequence (P62937 whole entry): as the sequence (P62937 whole entry) above
# KRAS G13D, sequence (P01116 1-169 isoform P01116-2 G13D limits assumed): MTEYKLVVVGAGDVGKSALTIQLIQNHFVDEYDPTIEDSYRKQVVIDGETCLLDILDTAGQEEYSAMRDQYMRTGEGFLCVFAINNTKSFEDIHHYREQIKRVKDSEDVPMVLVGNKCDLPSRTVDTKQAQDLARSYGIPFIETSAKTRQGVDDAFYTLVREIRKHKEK
# KRAS G13D, sequence (P62937 whole entry): as the sequence (P62937 whole entry) above
compound,measurement,setting,value
CCn1c(-c2cccnc2[C@H](C)OC)c2c3cc(ccc31)-c1cc(O)cc(c1)C[C@H](NC(=O)[C@H](C(C)C)N1CC[C@@]3(CCN(C[C@H]4CN4)C3)C1=O)C(=O)N1CCC[C@H](N1)C(=O)OCC(C)(C)C2 [Compound 193],IC50,NRAS G12C,10 to 100 nM
same,IC50,KRAS G12V,1000 to 10000 nM
same,IC50,KRAS G12C,10 to 100 nM
same,IC50,AsPC-1 (K-Ras G12D) [1]; [3],1000 to 10000 nM
same,IC50,KRAS G13C,10 to 100 nM
same,IC50,KRAS G12S,100 to 1000 nM
same,IC50,KRAS G12D,100 to 1000 nM
same,IC50,KRAS G13D,10 to 100 nM
same,EC50,AsPC-1 (K-Ras G12D) [2]; [4],< 5000 nM
same,IC50,KRAS WT,10 to 100 nM
CCn1c(-c2cccnc2[C@H](C)OC)c2c3cc(ccc31)-c1cc(O)cc(c1)C[C@H](NC(=O)[C@H](C(C)C)N1CCC3(CCN(C(=O)[C@H]4CN4)CC3)C1=O)C(=O)N1CCC[C@H](N1)C(=O)OCC(C)(C)C2 [Compound 196],IC50,NRAS G12C,< 10 nM
same,IC50,KRAS G12V,100 to 1000 nM
same,IC50,KRAS G12C,< 10 nM
same,IC50,AsPC-1 (K-Ras G12D) [1]; [3],1000 to 10000 nM
same,IC50,KRAS G13C,10 to 100 nM
same,IC50,KRAS G12S,100 to 1000 nM
same,IC50,KRAS G12D,100 to 1000 nM
same,IC50,KRAS G13D,10 to 100 nM
same,EC50,AsPC-1 (K-Ras G12D) [2]; [4],< 5000 nM
same,IC50,KRAS WT,10 to 100 nM
CCn1c(-c2cccnc2[C@H](C)OC)c2c3cc(ccc31)-c1cc(O)cc(c1)C[C@H](NC(=O)[C@H](C(C)C)N1CC[C@@]3(CCCN(C(=O)[C@H]4CN4)C3)C1=O)C(=O)N1CCC[C@H](N1)C(=O)OCC(C)(C)C2 [Compound 199],IC50,NRAS G12C,100 to 1000 nM
same,IC50,KRAS G12V,100 to 1000 nM
same,IC50,KRAS G12C,100 to 1000 nM
same,IC50,AsPC-1 (K-Ras G12D) [1]; [3],1000 to 10000 nM
same,IC50,KRAS G13C,100 to 1000 nM
same,IC50,KRAS G12S,100 to 1000 nM
same,IC50,KRAS G12D,100 to 1000 nM
same,IC50,KRAS G13D,100 to 1000 nM
same,EC50,AsPC-1 (K-Ras G12D) [2]; [4],< 5000 nM
same,IC50,KRAS WT,100 to 1000 nM
CCn1c(-c2cccnc2[C@H](C)OC)c2c3cc(ccc31)-c1cc(O)cc(c1)C[C@H](NC(=O)[C@H](C(C)C)N1CC[C@]3(CCCN(C(=O)[C@H]4CN4)C3)C1=O)C(=O)N1CCC[C@H](N1)C(=O)OCC(C)(C)C2 [Compound 200],IC50,NRAS G12C,< 10 nM
same,IC50,KRAS G12V,10 to 100 nM
same,IC50,KRAS G12C,< 10 nM
same,IC50,AsPC-1 (K-Ras G12D) [1]; [3],1000 to 10000 nM
same,IC50,KRAS G13C,10 to 100 nM
same,IC50,KRAS G12S,10 to 100 nM
same,IC50,KRAS G12D,100 to 1000 nM
same,IC50,KRAS G13D,100 to 1000 nM
same,EC50,AsPC-1 (K-Ras G12D) [2]; [4],< 5000 nM
same,IC50,KRAS WT,100 to 1000 nM
"CCn1c(-c2cnccc2COC)c2c3cc(ccc31)-c1cc(O)cc(c1)C[C@H](NC(=O)[C@H](C(C)C)N(C)C(=O)CN(C)C(=O)[C@H]1CN1C(C)=O)C(=O)N1CCC[C@H](N1)C(=O)OCC(C)(C)C2 [Example 34, (2R)-1-acetyl-N-(2-(((2S)-1-(((6^3S,4S)-1^1-ethyl-2^5-hydroxy-1^2-(4-(methoxymethyl)pyridin-3-yl)-10,10-dimethyl-5,7-dioxo-6^1,6^2,6^3,6^4,6^5,6^6-hexahydro-1^1H-8-oxa-1(5,3)-indola-6(1,3)-pyridazina-2(1,3)-benzenacycloundecaphane-4-yl)amino)-3-methyl-1-oxobutan-2-yl)(methyl)amino)-2-oxoethyl)-N-methylaziridine-2-carboxamide]",IC50,NRAS G12C,10 to 100 nM
same,IC50,KRAS G12V,100 to 1000 nM
same,IC50,KRAS G12C,10 to 100 nM
same,IC50,AsPC-1 (K-Ras G12D) [1],1000 to 10000 nM
same,IC50,KRAS G13C,10 to 100 nM
same,IC50,KRAS G12S,10 to 100 nM
same,IC50,KRAS G12D,100 to 1000 nM
same,IC50,KRAS G13D,100 to 1000 nM
same,EC50,AsPC-1 (K-Ras G12D) [2]; [5],< 5000 nM
same,IC50,KRAS WT,100 to 1000 nM
"CCn1c(-c2cnccc2COC)c2c3cc(ccc31)-c1cc(O)cc(c1)C[C@H](NC(=O)[C@H](C(C)C)N(C)C(=O)CN(C)C(=O)[C@H]1CN1C(=O)OC)C(=O)N1CCC[C@H](N1)C(=O)OCC(C)(C)C2 [Example 38, methyl (2R)-2-((2-(((2S)-1-(((6^3S,4S)-1^1-ethyl-2^5-hydroxy-1^2-(4-(methoxymethyl)pyridin-3-yl)-10,10-dimethyl-5,7-dioxo-6^1,6^2,6^3,6^4,6^5,6^6-hexahydro-1^1H-8-oxa-1(5,3)-indola-6(1,3)-pyridazina-2(1,3)-benzenacycloundecaphane-4-yl)amino)-3-methyl-1-oxobutan-2-yl)(methyl)amino)-2-oxoethyl)(methyl)carbamoyl)aziridine-1-carboxylate]",IC50,NRAS G12C,10 to 100 nM
same,IC50,KRAS G12V,100 to 1000 nM
same,IC50,KRAS G12C,10 to 100 nM
same,IC50,AsPC-1 (K-Ras G12D) [1],1000 to 10000 nM
same,IC50,KRAS G13C,10 to 100 nM
same,IC50,KRAS G12S,10 to 100 nM
same,IC50,KRAS G12D,100 to 1000 nM
same,IC50,KRAS G13D,100 to 1000 nM
same,EC50,AsPC-1 (K-Ras G12D) [2]; [5],< 5000 nM
same,IC50,KRAS WT,100 to 1000 nM

# Source: patent publication US11739074B2, “Ras inhibitors” (Revolution Medicines, Inc., priority 2019, dated 2023)
